The values below are quoted from earlier work in patent US20040191218A1, “Pharmaceutical compositions and methods for treating cancer” (priority 2001, published 2004).

The conditions of data set [1]: carboplatin compared with cisplatin.
For a further data set, the system named is ovarian cancer. The note with it: intraperitoneal IFN-γ, 108 patients with residual disease at second-look laparotomy.
Data set [2] deals with neoplastic cells including ovarian cancer cells.
The subject of a further data set is relapsing ovarian cancer. The following applies: 14 patients with relapsing ovarian cancer, IFN-γ 2 mg/m^2 daily intravenously.

On to `[NH2][Pt]1([NH2])[O]C(=O)C2(CCC2)C(=O)[O]1` [carboplatin, diammine(1,1-cyclobutanedicarboxylato) platinum(II)], for which, in data set [1], the neurotoxicity and nephrotoxicity result was “less neurotoxicity and nephrotoxicity than cisplatin”.
With “IFN-γ: lymphokine produced by T-lymphocytes; natural or recombinant interferon gamma”, in the data set with ovarian cancer, the overall response rate was 31%. In addition, the “antiproliferative effects on neoplastic cells” value in data set [2] is reported as “exerts antiproliferative effects”. In the data set on relapsing ovarian cancer, the Positive responses is 29%.
